Measured values: patent US9061010B2, “Methods of treating a Flaviviridae family viral infection and compositions for treating a Flaviviridae family viral infection” (The Board of Trustees of the Leland Stanford Junior …, priority 2007, dated 2015)
“Also recorded” adds a separate entry of the source.

Columns and labels:
[1] = tested on: HCV RNA replication (full-length luciferase reporter-linked HCV genome); experiment: Luciferase reporter-linked HCV replication assay in Huh7.5 cells; format: cell-based, Hepatitis C Virus; conditions: for percent of normal HCV RNA replication remaining at 5 µM / percent of normal HCV RNA replication remaining at 10 µM: Hepatitis C virus, Huh7.5, read-out: AV, percent of normal HCV RNA replication remaining
Description: For example, HCV replication assays employing a luciferase reporter-linked HCV genome in the presence of various combinations of clemizole and an NS3 protease inhibitor (SCH503034) are shown in FIGS. 1A and 1B. In such assays, luciferase activity is directly proportional to HCV RNA genome replication. […] The results can be plotted on a linear or log scale as a function of drug concentrations to generate replication inhibition curves.
Luciferase assays were performed at 72 hr.
(§1) Medium was changed daily.
The experiment was repeated four times, each time with triplicates.

HuR protein = target: T1, HuR protein (Homo sapiens, UniProt Q15717); experiment: Microfluidic RNA binding assay of HuR (specificity of hits); conditions: 0.1 mM
T1 construct: made in house; […]
From the text: For each experiment, an image was taken after MITOMI and the final PBS wash. This was used to determine the concentration of surface bound protein (FITC channel) as well as surface bound target RNA (Cy3 channel). […] Data from multiple data points were averaged, and their standard deviations calculated. Results were then normalized to 1. Between 10-20 replicates were included for each probe tested. A control protein, Gus-his (Roche) was included in each experiment and subjected to the same analysis. When present, detected signal with Gus-his was used for background subtraction.
Specificity of hits identified in the small molecule screen: To determine the specificity of the hits identified in the small molecule screen, the HuR protein (one of the human RNA binding protein used to validate our RNA binding assay) was selected. […] Binding of HuR to the consensus 4A RNA sequence was tested in the presence of the inhibitory molecules shown to inhibit RNA binding by NS4B. […] Similarly, 0.1 mM of the identified compounds didn't have an inhibitory effect on binding of HuR to the 3′ terminus of the negative HCV RNA strand.

Huh7.5 cells = experiment: Alamar Blue viability assay
Description: (§2) Huh-7.5 cells were maintained in Dulbecco's modified minimal essential medium (Gibco) supplemented with 1% L-glutamine (Gibco), 1% penicillin, 1% streptomycin (Gibco), 1× nonessential amino acids (Gibco) and 10% fetal bovine serum (Omega Scientific). Cell lines were passaged twice weekly after treatment with 0.05% trypsin-0.02% EDTA and seeding at a dilution of 1:5. Subconfluent Huh-7.5 cells were trypsinized and collected by centrifugation at 700 g for 5 min. The cells were then washed three times in ice-cold RNase-free PBS (BioWhittaker) and resuspended at 1.5*10^7 cells/ml in PBS. Wild type or mutant FL-J6/JFH-5′C19Rluc2AUbi RNA for electroporation was generated by in vitro transcription of XbaI-linearized DNA templates using the T7 MEGAscript kit (Ambion), followed by purification, essentially as described above (In vitro RNA transcription and fluorescent labeling). 5 μg of RNA was mixed with 400 μl of washed Huh-7.5 cells in a 2 mm-gap cuvette (BTX) and immediately pulsed (0.82 kV, five 99 μs pulses) with a BTX-830 electroporator. After a 10 min recovery at 25° C., pulsed cells were diluted into 10 ml of prewarmed growth medium. Cells from several electroporations were pooled to a common a stock and seeded in 6 well plates (5*10^5 cells per well). After 24 hr, medium was replaced and cells were grown in the presence of serial dilutions of the various inhibitory compounds (Sigma) identified in the screen. […] Untreated cells were used as a negative control for water soluble compounds. For compounds solubilized in DMSO, untreated cells were grown in the presence of corresponding concentrations of the solvent as a negative control. Medium was changed daily. After 72 hr of treatment, cells were subjected to an alamar blue based viability assay and luciferase assay.
(§3) Following 72 hrs of treatment, cells were incubated for 3 hrs at 37° C. in the presence of 10% Alamar Blue reagent (TREK Diagnostic Systems).

[2] = cited from earlier work
W55R mutant J6/JFH RNA = experiment: Luciferase reporter-linked replication assay, W55R mutant; format: cell-based, Hepatitis C Virus; conditions: 10 μM clemizole; whole cell RNA or in vitro-transcribed RNA
From the text: Two of the clemizole-resistant NS4B mutants were characterized in detail. The first, W55R is depicted in FIG. 9a. It involves the substitution of an arginine for the tryptophan at amino acid 55 within a predicted cytoplasmically-oriented segment of NS4B. This mutation is sufficient to confer a clemizole-resistant phenotype in cells: Huh7.5 cells transfected with either whole cell RNA extracted from the W55R mutant cells (FIG. 9b) or with in vitro-transcribed J6/JFH RNA encoding this point mutation and a linked luciferase reporter gene (FIG. 9c) were unaffected by 10 μM clemizole.
The plasmid FL-J6/JFH-5′C19Rluc2AUbi that consists of the full-length HCV genome and expresses Renilla luciferase was a gift from Dr. Charles M. Rice^28. The W55R mutation was introduced into this plasmid by site-directed mutagenesis (using the QuikChange kit (Stratagene)).
as §1
Whole cell RNA was extracted from clemizole-resistant replicon clones and from untreated replicon cells using TRIzol reagent (Invitrogen). Equal amounts of whole cell RNA (50 μg) were electroporated into Huh7.5 cells as described above. Cells were grown under G418 selection in the presence or absence of clemizole for 3 weeks. The number of colonies was determined using Image J (NIH) following fixation and staining with Crystal violet.

HCV (genotype 4) = experiment: Treatment of patients chronically infected with HCV, serum HCV viral load; format: in vivo, human
Description: Three patients chronically-infected with HCV (genotype 4) were treated in accordance with an embodiment of the method of the invention. All were male and had baseline ALT elevations and significant HCV viral loads ranging from 290,000-730,000 IU/ml.
After the first four weeks of clemizole monotherapy, pegylated interferon (180 micrograms Pegasus (Roche) s.q. per week) was added.

[3] = target: T2, W55R NS4B mutant binding to HCV RNA (Hepatitis C virus genotype 1a, UniProt P27958, A1893V/D1840G/F1898S/L1839I/R1905H/S1900A/W1766R); experiment: Microfluidic in vitro RNA binding assay, W55R NS4B mutant; conditions: 10 nM clemizole
T2 construct: made in house; host or cells: coupled transcription/translation rabbit reticulocyte system (Promega) with canine microsomal membranes
From the text: This mutation was also introduced into the NS4B-GFP vector and the resulting vector tested for its RNA binding activity using the in vitro microfluidic assay of the invention.
The plasmid pcDNA-NS4B-GFP encoding NS4B of genotype 1a fused in frame with a C-terminal GFP was previously described^5. The mutations RRa, RRb and W55R were introduced into this plasmid by site-directed mutagenesis (using the QuikChange kit (Stratagene)). The plasmid NS5A(AH)GFP was constructed as previously reported. Gus-his vector was obtained from Roche.

[4] = cited from earlier work; remark: listed apart in the source
[5] = target: HCV NS4B binding to the 3′ terminus of the HCV negative strand RNA (Hepatitis C virus genotype 1a, UniProt P27958); experiment: Microfluidic (MITOMI) in vitro RNA binding assay of NS4B; conditions: 10 nM clemizole
[6] = Alamar Blue viability assay; conditions: human
Description: as §2, §3

Molecule | AV score ([1]; 5 uM) | AV score ([1]; 10 uM) | percent of normal HCV RNA replication remaining at 5 µM ([1]; 5 uM) [%] | percent of normal HCV RNA replication remaining at 10 µM ([1]; 10 uM) [%] | also measured
Cc1nc2cc(Cl)ccc2n1Cc1ccccc1 | + (60-90% residual activity) | + (60-90% residual activity) | 87 | 60 | 
Cc1cc2ncn(Cc3ccc(Cl)cc3Cl)c2cc1C | +++ (0-30% residual activity) | +++ (0-30% residual activity) | 30 | 8 | 
Brc1ccc(Cn2cnc3ccccc32)cc1 | +++ (0-30% residual activity) | +++ (0-30% residual activity) | 23 | 8 | 
Cc1nc2ccccc2n1Cc1ccc(Br)cc1 | +++ (0-30% residual activity) | +++ (0-30% residual activity) | 3 | 2 | 
OCc1nc2ccccc2n1Cc1ccc(Br)cc1 | ++ (30-60% residual activity) | +++ (0-30% residual activity) | 50 | 28 | 
COC(=O)c1ccc(Cn2cnc3ccccc32)cc1 | + (60-90% residual activity) | ++ (30-60% residual activity) | 74 | 54 | 
CC(C)(C)c1ccc(Cn2cnc3ccccc32)cc1 | +++ (0-30% residual activity) | +++ (0-30% residual activity) | 30 | 12 | 
Cc1ccc(Cn2cnc3ccccc32)cc1 | ++ (30-60% residual activity) | +++ (0-30% residual activity) | 49 | 23 | 
COc1ccc(Cn2cnc3ccccc32)cc1 | + (60-90% residual activity) | ++ (30-60% residual activity) | 70 | 58 | 
O=C(O)C1=CC(=C(c2ccc(O)c(C(=O)O)c2)c2ccc(O)c(C(=O)O)c2)C=CC1=O [ATA, Aurintricarboxilic acid] |  |  |  |  | inhibitory effect on binding of HuR to the 3′ terminus of the negative HCV RNA strand (HuR protein): significantly inhibited; inhibitory effect on binding of HuR to the consensus 4A RNA sequence (HuR protein): significantly inhibited
Cl.Clc1ccc(Cn2c(CN3CCCC3)nc3ccccc32)cc1 [Clemizole hydrochloride, 1-p-Chlorobenzyl-2-(1-pyrrolidinyl)methylbenzimidazole hydrochloride, reference compound] |  |  |  |  | decrease in viral replication ([1]; 20 μM, luciferase at 72 hr): tenfold decrease; cellular toxicity (Huh7.5 cells; at concentrations up to 20 μM, 72 hr, Alamar Blue): no measurable cellular toxicity; time to relief of itching ([2]; human, in vivo): 24 to 48 h
Clc1ccc(Cn2c(CN3CCCC3)nc3ccccc32)cc1 [clemizole] |  |  |  |  | difference between IC50 for in vitro RNA binding and EC50 for antiviral effect in cells [1]: ~400 fold; effect of adding clemizole to SCH503034 on inhibition of HCV replication ([1]; SCH503034 1-5 micromolar, 72 hours, FIGS. 1A and 1B): increase the inhibition of HCV replication in a dose-dependent manner by up to several logs; toxicity to the cell in the real-time PCR experiment (Huh7.5 cells; HCV-infected Huh7.5 cells, 72 hours, FIG. 15): no measurable toxicity to the cell; replication of W55R mutant in presence of clemizole (W55R mutant J6/JFH RNA): unaffected; inhibitory effect on binding of HuR to the consensus 4A RNA sequence (HuR protein): No inhibitory effect; HCV viral load after clemizole monotherapy (HCV (genotype 4); 100 mg po BID, week 4, 3 patients): nearly at or below the limit of HCV detection; also recorded: completely, or nearly, undetectable; HCV viral load after clemizole monotherapy plus clemizole with pegylated interferon (HCV (genotype 4); 4 weeks monotherapy plus 4 weeks clemizole-standard dose pegylated interferon): below the limit of detection; reduction of RNA binding, W55R mutant NS4B [3]: ~2 fold; drowsiness, share of patients treated ([4]; Zierz and Greither): 1.3%; patients with drowsiness ([4]; human, in vivo): 2 of the 104 patients; subjects who responded to treatment ([4]; various dosage forms): 92 of the 104 subjects; patients reporting excellent relief of itching ([2]; 40 to 160 mg/day): 66%; patients reporting good relief of itching ([2]; 40 to 160 mg/day): 23%; patients with mild side effects ([2]; drowsiness most common): 4 patients; reduction of RNA binding, wild type NS4B [5]: ~2 fold
Clc1ccc(Cn2c(CN3CCCC3)nc3ccccc32)cc1 [drawing 374] | + (60-90% residual activity) | ++ (30-60% residual activity) | 62 | 37 | viability at 72 h, 5 µM [6]: 90 to 100%; viability at 72 h, 10 µM [6]: 90 to 100%; Viab, percent of normal cell viability remaining (Huh7.5 cells; 5 uM): 107%; Viab, percent of normal cell viability remaining (Huh7.5 cells; 10 uM): 93%
Interferon alpha B2 |  |  |  |  | reduction of luciferase activity (positive control) ([1]; 100 u/ml, 72 hr treatment): three log reduction
